Bridge positions count the residues as written; N and C are the ends. Square brackets hold non-standard residues; d marks the D form. Peptide text beside a SMILES is read from it. * marks the point of attachment. Biotin = O=C1N[C@H]2[C@H](CS[C@H]2CCCCC(=O)*)N1; S5 = C=CCCC[C@](C)(N)C(=O)O; βAla = NCCC(=O)O
Assays:
[1] = Circular dichroism spectra, alpha helicity; type: physicochemical; settings: cross-linked vs not cross-linked, FIG. 5
From the text: FIG. 4 is a schematic drawing and detailed structural depiction of a modified polypeptide having the sequence of REM-G1 (SAHN1).

[2] = system: HES1; test: HES1 expression in T-ALL cells (MOLT4); type: cell-based; settings: FIG. 23
From the text: (§1) The results of this analysis are show in FIG. 23.

[3] = system: Notch complex mediated transcription; test: Beta-lactamase gene under CSL responsive promoter in T-ALL cells (MOLT4); type: cell-based; settings: decrease similar to RNAi against Notch or lactamase, FIG. 22
From the text: T-ALL cells (MOLT4) harboring a beta-lactamase gene under the control of a CSL responsive promoter was used to study the effect of SAHN1 and SAHN11 on Notch complex mediated transcription.

[4] = system: neoplastic murine lymphocytes derived from transgenic mice harboring human Notch mutations
[5] = system: ALL-SIL cells; test: Viability of ALL-SIL cells; type: cell-based; settings: FIG. 15
[6] = biological target: T1, ICN1 bound to immunoprecipitated MAML (Homo sapiens, UniProt P46531+Q06330); test: Competition for ICN1 bound to immunoprecipitated MAML in T-ALL cellular lysates; type: binding; settings: FIG. 20 and 21
T1 construct: endogenous in cells
T1 sequence (P46531 1754-2555 limits assumed): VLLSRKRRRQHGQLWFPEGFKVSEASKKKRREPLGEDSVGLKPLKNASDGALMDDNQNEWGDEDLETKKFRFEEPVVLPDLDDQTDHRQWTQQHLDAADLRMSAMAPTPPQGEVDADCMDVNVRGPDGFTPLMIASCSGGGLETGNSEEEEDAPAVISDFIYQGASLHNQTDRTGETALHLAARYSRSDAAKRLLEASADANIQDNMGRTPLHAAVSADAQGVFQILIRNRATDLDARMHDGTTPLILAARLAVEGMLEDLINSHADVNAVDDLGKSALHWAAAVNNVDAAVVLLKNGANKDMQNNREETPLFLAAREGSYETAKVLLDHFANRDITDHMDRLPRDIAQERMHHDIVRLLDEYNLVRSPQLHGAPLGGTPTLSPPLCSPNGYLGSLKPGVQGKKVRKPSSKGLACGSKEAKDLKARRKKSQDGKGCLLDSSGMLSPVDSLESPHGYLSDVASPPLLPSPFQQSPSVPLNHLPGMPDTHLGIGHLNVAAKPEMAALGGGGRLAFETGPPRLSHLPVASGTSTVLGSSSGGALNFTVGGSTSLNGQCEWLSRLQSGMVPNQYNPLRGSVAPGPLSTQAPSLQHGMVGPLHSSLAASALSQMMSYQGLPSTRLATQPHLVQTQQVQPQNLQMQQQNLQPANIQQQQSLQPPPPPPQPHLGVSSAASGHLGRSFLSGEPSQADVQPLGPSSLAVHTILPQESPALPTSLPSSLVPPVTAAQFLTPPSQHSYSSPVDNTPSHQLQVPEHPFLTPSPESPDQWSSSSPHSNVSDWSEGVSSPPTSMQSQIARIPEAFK
T1 sequence (Q06330 whole entry): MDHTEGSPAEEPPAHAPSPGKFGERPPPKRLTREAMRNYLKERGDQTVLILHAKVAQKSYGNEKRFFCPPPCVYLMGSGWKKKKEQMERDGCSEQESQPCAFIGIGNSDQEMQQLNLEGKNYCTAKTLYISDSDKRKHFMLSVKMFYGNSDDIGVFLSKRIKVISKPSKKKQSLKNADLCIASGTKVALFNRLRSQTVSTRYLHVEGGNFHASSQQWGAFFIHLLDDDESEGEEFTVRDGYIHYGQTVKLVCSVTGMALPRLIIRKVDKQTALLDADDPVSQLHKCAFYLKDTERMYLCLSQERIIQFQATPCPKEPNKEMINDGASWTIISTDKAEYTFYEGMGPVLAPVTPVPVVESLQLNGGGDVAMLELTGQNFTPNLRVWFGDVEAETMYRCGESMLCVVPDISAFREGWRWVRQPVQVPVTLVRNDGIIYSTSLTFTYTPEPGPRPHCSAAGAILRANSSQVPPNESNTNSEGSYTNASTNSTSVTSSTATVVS

[7] = system: HEY1; test: HEY1 expression in T-ALL cells (MOLT4); type: cell-based; settings: FIG. 23
From the text: as §1

[8] = system: gamma secretase resistant T-ALL cells (MOLT4); test: Apoptotic response in gamma secretase resistant T-ALL cells (MOLT4); type: cell-based; settings: MOLT4, after 24 or 48 hours, FIG. 24
From the text: The results of this analysis are show in FIG. 24.

[9] = system: KOPTK1 cells; type: cell-based
From the text: The results of this analysis are show in FIG. 25.

[10] = biological target: T2, ICN and CSL (Homo sapiens, UniProt P46531+Q06330); test: Immunoprecipitation from T-ALL (KOPTK1) cell lysates; type: binding; settings: FIG. 19
T2 construct: endogenous in cells; host or cells: KOPTK1 (T-ALL) cell lysates
T2 sequence (P46531 1754-2555 limits assumed): as the sequence (P46531 1754-2555 limits assumed) above
T2 sequence (Q06330 whole entry): as the sequence (Q06330 whole entry) above

[11] = system: Cells; type: cell-based
Method: Automated quantitative immunofluorescence was used to determine the intracellular distribution of fluorophore-labeled stapled alpha helices. Cells were incubated with FITC-conjugated peptides SAHN1, SAHN2, or SAHN6; or control. At 16 hours measurements of cellular fluorescence were taken using epifluorescence microscopy. The results of these studies are shown in FIG. 10 in which each circle represents an individual cell and each column represents a treatment condition.
Automated quantitative immunofluorescence was also used to determine the intracellular distribution of fluorophore-labeled stapled alpha helices. Cells were incubated with FITC-conjugated peptides SAHN1, or unstapled SAHN1.

[12] = system: MOLT4 cells; test: Viability of MOLT4 cells; type: cell-based; settings: FIG. 14 and 17
[13] = system: CSL-responsive reporter; test: CSL-responsive reporter in transfected MOLT4 cells; type: cell-based; settings: FIG. 12
From the text: MOLT4 cells transfected with a CSL-responsive reporter were used to test whether stapled SAHN11 can interfere with Notch-mediated activation of transcription.

[14] = system: TALL1 cells; test: Viability of TALL1 cells; type: cell-based; settings: FIG. 18

Compound	alpha helical content (circular dichroism) [1] [%]	expression of HES1 [2]	transcription from CSL responsive promoter (beta-lactamase) [3]	cytotoxicity to neoplastic murine lymphocytes [4]	viability of ALL-SIL cells [5]	competing away ICN1 bound to immunoprecipitated MAML [6]	expression of HEY1 [7]	apoptotic response [8]	IC50 [9] [µM]	viability of KOPTK1 cells ([9]; FIG. 16)	pull down of both ICN and CSL [10]	effect of stapling on intracellular passage [11]	intracellular passage (cellular fluorescence) [11]	viability of MOLT4 cells [12]	expression of the CSL-responsive reporter [13]	viability of TALL1 cells [14]
CC[C@H](C)[C@H](NC(=O)[C@H](CCCNC(=N)N)NC(=O)[C@H](CCCNC(=N)N)NC(=O)[C@H](CCCNC(=N)N)NC(=O)[C@H](CC(C)C)NC(=O)[C@H](CCCNC(=N)N)NC(=O)[C@H](CCC(=O)O)NC(=O)CCNC(C)=O)C(=O)N[C@@]1(C)CCCC=CCCC[C@@](C)(C(=O)N[C@@H](Cc2c[nH]cn2)C(=O)N[C@@H](Cc2c[nH]cn2)C(=O)N[C@@H](CO)C(=O)N[C@H](C(N)=O)[C@@H](C)O)NC(=O)[C@H](CCCNC(=N)N)NC(=O)[C@H](CS)NC(=O)[C@H](CC(C)C)NC1=O [SAHN1] (Ac-[βAla]ERLRRRI[S5]LCR[S5]HHST-NH2; staple 9-13)	96	decrease expression of HES1	decreased transcription	is cytotoxic to neoplastic murine lymphocytes	reduced the viability of ALL-SIL cells	can compete away ICN1	decrease expression of HES1 and HEY1	induces an apoptotic response	8	reduced the viability of KOPTK1 cells	can pull down both ICN and CSL	stapling of the peptide did not, in this instance, appear to impact intracellular passage	exhibited significant intracellular passage	–	–	–
CC[C@H](C)[C@H](NC(=O)[C@H](CCCNC(=N)N)NC(=O)[C@H](CCCNC(=N)N)NC(=O)CCNC(=O)[C@H](CCCCNC(=O)CCCC[C@@H]1SC[C@@H]2NC(=O)N[C@@H]21)NC(C)=O)C(=O)N[C@@H](CCC(=O)O)C(=O)N[C@@H](CC(C)C)C(=O)N[C@@H](CS)C(=O)N[C@@H](CCCNC(=N)N)C(=O)N[C@@H](CCCNC(=N)N)C(=O)N[C@@H](Cc1c[nH]cn1)C(=O)N[C@@H](Cc1c[nH]cn1)C(=O)N[C@@]1(C)CCCC=CCCC[C@@](C)(C(=O)N[C@@H](CCCNC(=N)N)C(=O)N[C@@H](Cc2ccc(O)cc2)C(=O)N[C@@H](CCC(=O)O)C(=O)N[C@@H](C)C(=O)N[C@H](C(N)=O)C(C)C)NC(=O)[C@H](CCC(=O)O)NC(=O)[C@H](CS)NC(=O)[C@H]([C@@H](C)O)NC1=O [SAHN11] (Ac-K(Biotin)[βAla]RRIELCRRHH[S5]TCE[S5]RYEAV-NH2; staple 13-17; N-terminus assumed)	–	–	decreased transcription	–	–	–	–	–	–	–	can pull down both ICN and CSL	–	–	reduced the viability of MOLT4 cells	reduced expression of the CSL-responsive reporter in a dose-dependent manner	reduced the viability of TALL1 cells

— patent publication US9074009B2, “Stabilized MAML peptides and uses thereof” (Dana-Farber Cancer Institute, Inc., priority 2006, dated 2015)
